The record followed here is US12396971B2, “Administration of beta-hydroxybutyrate and related compounds in humans for the treatment and/or prevention of respiratory illnesses” (AXCESS GLOBAL SCIENCES, LLC, priority 2020, dated 2025).

Holding throughout (format): in vivo, humans
Test [1] has as its system respiratory illness, COVID-19. Description: Cardiovascular endurance, standard 15 minute cycling test over 4 days. The conditions noted are these: 10 g vs not administered, FIG. 3. As for the experimental part:
(§1) A composition comprising 10 g of R-beta-hydroxybutyrate was administered to individuals twice a day. […] The patients were tested and monitored to determine the impact of administration of beta-hydroxybutyrate on the illness progression and recovery. Administration of the beta-hydroxybutyrate reduced the number of symptoms and the severity of symptoms. […] Since quicker returns to normal values may indicate less chances for long-term continuance of viral respiratory illnesses (e.g., long-haul or long-term Covid-19), administration of beta-hydroxybutyrate may be associated with decreased potential for long-term continuance of symptoms.
FIG. 3 graphically illustrates endurance capacity monitoring in individuals over 4 days for individuals administered 10 g of R-beta-hydroxybutyrate and not administered 10 g of R-beta-hydroxybutyrate. Cardiovascular endurance was measured using a standard 15 minute cycling test and is illustrated in FIG. 3 as a percentage of normal.

For test [2], the system named is respiratory illness, COVID-19. Description: Lung function (FEV) measurements over 4 days. The conditions noted are these: FIG. 2. As for the experimental part: as §1
FIG. 2 graphically illustrates lung function measurements over 4 days for individuals administered 10 g of R-beta-hydroxybutyrate and not administered 10 g of R-beta-hydroxybutyrate. […] As illustrated, improvement in FEV plateaued when beta-hydroxybutyrate was not administered while it continued to improve when R-beta-hydroxybutyrate was administered. Reduction in the chances of plateauing lung function (e.g., at reduced levels) may decrease potential for long-term continuance of symptoms such as those found in long term or long-haul COVID-19 sufferers (e.g., individuals who had COVID-19 and continue to present with symptoms 4 or more weeks after infection).

In test [3] the test system is respiratory illness, COVID-19. As to the kind of experiment: Cough severity by Cough Severity Visual Analogue Scale over 4 days. The conditions noted are these: 10 g, orally, vs not administered, FIG. 1. On the procedure: as §1
FIG. 1 graphically illustrates cough measured over 4 days for individuals administrated 10 g of R-beta-hydroxybutyrate and not administered 10 g of R-beta-hydroxybutyrate. Cough severity was measured using the Cough Severity Visual Analogue Scale. As illustrated, cough severity was lower with administration of 10 g of R-beta-hydroxybutyrate. Furthermore, cough severity was not as high when beta-hydroxybutyrate was orally administered.

Test [4] concerns respiratory illness, COVID-19. Description: Symptoms and recovery monitoring in individuals with COVID-19 administered R-beta-hydroxybutyrate. The conditions noted are these: composition comprising 10 g twice a day. As for the experimental part:
as §1

Molecules are shown by their SMILES.

With `C[C@@H](O)CC(=O)O` [R-beta-hydroxybutyrate, (R)-3-Hydroxybutyric acid], in test [1], the “cardiovascular endurance as a percentage of normal” value is listed as “overall better” and the “recovery to normal cardiovascular endurance” value is on record as “quicker recovery to normal”. Also, the “time for lung function to improve to normal” value in test [2] (10 g vs not administered (FEV plateaued without)) is listed as “improve to normal more quickly”. In test [2] (10 g vs not administered), the “FEV (as a % of normal FEV)” value is reported as “higher overall”. Moreover, the “cough severity (Cough Severity Visual Analogue Scale)” value in test [3] is recorded as “lower”. In test [4], the number of symptoms entry is reported as “reduced”, the recovery time result was “decreased” and the severity of symptoms result was “reduced”.
